Laboratory results published in PubChem BioAssay (NCI).
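A five-concentration, 48-hour dose response in 96-well plates underlies each endpoint, interpolated linearly between surrounding concentrations. GI50: concentration for 50% inhibition of growth. TGI: concentration producing complete growth inhibition.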

Assays:
Assay in all cases: NCI-60 cell line screen, 48 h
HT29 colon = system: HT29 colon
PC-3 prostate = system: PC-3 prostate
RPMI-8226 leukemia = system: RPMI-8226 leukemia
SK-MEL-28 melanoma = system: SK-MEL-28 melanoma
CCRF-CEM leukemia = system: CCRF-CEM leukemia
MDA-MB-435 = system: MDA-MB-435
U251 CNS = system: U251 CNS
ACHN renal = system: ACHN renal
NCI-H460 lung = system: NCI-H460 lung
HOP-62 NSCLC = system: HOP-62 NSCLC
COLO 205 colon = system: COLO 205 colon
SK-MEL-2 melanoma = system: SK-MEL-2 melanoma
TK-10 renal = system: TK-10 renal
MDA-MB-231 breast = system: MDA-MB-231 breast
UO-31 renal = system: UO-31 renal
SF-539 CNS = system: SF-539 CNS
BT-549 breast = system: BT-549 breast

Structure (SMILES)	TGI (HT29 colon)	TGI (PC-3 prostate)	TGI (RPMI-8226 leukemia)	TGI (SK-MEL-28 melanoma)	TGI (CCRF-CEM leukemia)	TGI (MDA-MB-435)	TGI (U251 CNS)	TGI (ACHN renal)	TGI (NCI-H460 lung)	TGI (HOP-62 NSCLC)	TGI (COLO 205 colon)	TGI (SK-MEL-2 melanoma)	TGI (TK-10 renal)	TGI (MDA-MB-231 breast)	TGI (UO-31 renal)	TGI (SF-539 CNS)	TGI (BT-549 breast)	GI50 (CCRF-CEM leukemia)
CN(C)C(=S)N1C(=S)N(c2ccccc2)C(=Nc2ccccc2)C1=Nc1ccccc1	> 100 µM	> 100 µM	> 100 µM	> 100 µM	> 100 µM	> 100 µM	> 100 µM	> 100 µM	> 100 µM	> 100 µM	> 100 µM	> 100 µM	> 100 µM	> 100 µM	> 100 µM	> 100 µM	–	–
Cc1c(C#N)c(N)[nH]c(=S)c1C#N	> 100 µM	> 100 µM	> 100 µM	> 100 µM	> 100 µM	–	> 100 µM	> 100 µM	> 100 µM	> 100 µM	–	> 100 µM	> 100 µM	> 100 µM	> 100 µM	> 100 µM	> 100 µM	–
N#CC(/C(=N\NC(=O)c1ccncc1)C(=O)Nc1ccc([N+](=O)[O-])cc1[N+](=O)[O-])c1nc(-c2ccc(Br)cc2)cs1 (configuration not stated)	–	–	> 100 µM	> 100 µM	> 100 µM	–	> 100 µM	> 100 µM	> 100 µM	> 100 µM	> 100 µM	> 100 µM	> 100 µM	–	> 100 µM	> 100 µM	–	–
C=CCOc1ccc(/C(N=Nc2ccc(C)cc2)=N/NC(=O)c2ccccc2)cc1OC	> 100 µM	> 100 µM	–	51.3 µM	41.1 µM	47.3 µM	> 100 µM	> 100 µM	48 µM	> 100 µM	66.1 µM	73.3 µM	> 100 µM	> 100 µM	73.4 µM	–	47.1 µM	–
Cc1cc(N)ccc1N=Nc1ccc(S(=O)(=O)CCOS(=O)(=O)O)cc1	6.53 µM	12.7 µM	> 45.4 µM	19 µM	> 100 µM	0.502 µM	13.1 µM	14.4 µM	12.2 µM	22.6 µM	6.08 µM	3.89 µM	27.5 µM	–	8.63 µM	6.9 µM	14.6 µM	–
CC(C)C1C(=O)NC(CO)Cc2c[nH]c3c(C(c4c[nH]c5ccccc45)C(O)CO)ccc(c23)N1C (configuration not stated)	> 100 µM	–	> 100 µM	> 100 µM	> 100 µM	–	–	> 100 µM	> 100 µM	–	38.6 µM	> 100 µM	> 100 µM	–	> 100 µM	> 100 µM	–	–
C=C[C@]1(O)CCC[C@]2(C)C(=O)CCC12C (some centres not stated)	> 100 µM	> 100 µM	> 100 µM	> 100 µM	–	> 100 µM	> 100 µM	> 100 µM	> 100 µM	> 100 µM	> 100 µM	> 100 µM	–	> 100 µM	> 100 µM	> 100 µM	–	–
CC1=C(C)CC(C#N)(C#N)C(C#N)(C#N)C1	> 10 µM	> 10 µM	> 6.71 µM	> 10 µM	> 10 µM	–	> 10 µM	> 10 µM	> 10 µM	> 10 µM	> 6.8 µM	> 10 µM	> 8.75 µM	> 10 µM	> 10 µM	> 10 µM	–	–
O=C(/C=C/c1ccc(O)c(O)c1)OCc1ccccc1	> 100 µM	85.1 µM	32.2 µM	61.3 µM	–	97.3 µM	49.6 µM	40.7 µM	> 100 µM	72.4 µM	70.9 µM	82 µM	54.3 µM	67.1 µM	51.1 µM	24.5 µM	–	–
O=c1c(-c2ccccc2)c2oc(c1-c1ccccc1)CS(=O)(=O)CCC2	75.8 µM	–	> 100 µM	38.3 µM	> 100 µM	–	–	> 100 µM	> 100 µM	> 100 µM	42.1 µM	> 100 µM	> 100 µM	–	–	42.4 µM	–	–
COc1ccc(N=Nc2c(C)c(C#N)c(=S)n(C3OC(COC(C)=O)C(OC(C)=O)C(OC(C)=O)C3OC(C)=O)c2C)cc1 (configuration not stated)	> 100 µM	> 100 µM	> 100 µM	> 100 µM	> 100 µM	–	–	> 100 µM	> 100 µM	> 100 µM	> 100 µM	–	> 100 µM	71 µM	> 100 µM	> 100 µM	> 100 µM	–
CCOC(=O)C[C@@H](C)[C@]1(C(=O)OC)CCCC1=O	> 100 µM	–	> 71.4 µM	> 100 µM	> 100 µM	–	> 100 µM	> 100 µM	> 100 µM	> 100 µM	> 84.2 µM	> 100 µM	> 100 µM	–	> 100 µM	> 100 µM	–	–
O=C(/C=C/c1ccc(O)c(O)c1)OC1C[C@@](O)(C(=O)O)C[C@@H](O)[C@H]1OC(=O)/C=C/c1ccc(O)c(O)c1 (some centres not stated)	> 100 µM	–	> 100 µM	> 100 µM	> 100 µM	–	> 100 µM	> 100 µM	> 100 µM	> 100 µM	> 100 µM	> 100 µM	> 100 µM	–	> 100 µM	> 100 µM	–	–
COc1ccc(/C=N/N=C(\N)NO)c(Cl)c1O	–	–	> 100 µM	> 100 µM	> 100 µM	–	> 100 µM	> 100 µM	–	72.1 µM	> 100 µM	70.6 µM	–	–	54.1 µM	46.5 µM	–	–
Cc1ccc2[nH]c3c(C)c4c(c(C)c3c2c1)CN(C)C=C4	11.2 µM	–	35.5 µM	4.03 µM	22 µM	–	1.09 µM	20.5 µM	12 µM	2.71 µM	1.4 µM	3.2 µM	21.9 µM	–	19.5 µM	1.62 µM	–	2.33 µM
O=C(CSc1nnc(Cc2ccccc2)o1)Nc1cccc(Cl)c1	> 100 µM	–	> 100 µM	> 100 µM	> 100 µM	–	> 100 µM	> 100 µM	> 100 µM	> 100 µM	> 100 µM	> 100 µM	> 100 µM	–	> 100 µM	> 100 µM	–	–
